In brackets after ≈: the same amount, converted by molar mass. Blank lines part the entries; values can stand above or below the compound they belong to. Residues, ends and D or L forms follow the SMILES beside them.
Experiments:
[1] = molecular target: T1, Sortase A (Staphylococcus aureus, UniProt Q9S446); test: Inhibition of Staphylococcus aureus SrtA (60 to 206 residues) using Abz-LPETG-Dap(Dnp)-NH2 as substrate incubated for 1 hr by FRET assay
T1 sequence (Q9S446 whole entry): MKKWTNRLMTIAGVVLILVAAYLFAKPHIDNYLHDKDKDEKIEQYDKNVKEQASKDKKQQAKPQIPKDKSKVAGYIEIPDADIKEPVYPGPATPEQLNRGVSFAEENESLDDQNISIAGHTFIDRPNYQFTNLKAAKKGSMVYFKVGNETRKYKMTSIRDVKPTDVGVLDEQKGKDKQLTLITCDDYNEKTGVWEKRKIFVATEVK

[2] = system: Staphylococcus aureus; test: Antibacterial activity against Staphylococcus aureus Newman assessed as inhibition of bacterial growth by spectrophotometer method; format: functional
[3] = molecular target: T1, Sortase A; test: Inhibition of Staphylococcus aureus SrtA using EDANS-Dabcyl as substrate by FRET assay
[4] = system: Staphylococcus aureus; test: Antibacterial activity against Staphylococcus aureus; format: functional
[5] = molecular target: T1, Sortase A; test: Inhibition of Staphylococcus aureus SrtA
[6] = system: Staphylococcus aureus; test: Inhibition of biofilm formation in Staphylococcus aureus ATCC 29213 incubated for 24 hrs by crystal violet staining based analysis; format: functional, organism-based; conditions: ATCC 29213, 24 h
[7] = molecular target: T1, Sortase A; test: Inhibition of C-terminal 6His-tagged recombinant Staphylococcus aureus SrtA with 1 to 59 residues truncated from N-terminus expressed in Escherichia coli BL21 (DE3) using dabcyl-QALPETGEE-edans as substrate preincubated for 1 hr followed by substrate addition and measured for 1 hr by FRET assay
[8] = molecular target: T1, Sortase A; test: Inhibition of recombinant Staphylococcus aureus ATCC 6538p SrtA expressed in Escherichia coli TOP10 using Dabcyl-QALPETGEE-Edans as substrate incubated for 1 hr by fluorometric analysis
[9] = molecular target: T2, Sortase A (Staphylococcus aureus) (UniProt Q9S446); test: Binding affinity to Staphylococcus aureus SrtA assessed as kinact/ki
T2 sequence (whole entry): T1 sequence (Q9S446 whole entry)

[10] = molecular target: T1, Sortase A; test: Inhibition of Staphylococcus aureus SrtA catalytic domain (60 to 206 residues) using Abz-LPETGDap(Dnp)-NH2 as substrate preincubated for 1 hr followed by substrate addition and measured immediately by FRET assay
[11] = molecular target: T2, Sortase A (Staphylococcus aureus); test: Binding affinity to Staphylococcus aureus SrtA (60 to 206 residues) using Dabcyl-Gln-Ala-Leu-Pro-Glu-Thr-Gly-Glu-Glu-Edans as substrate assessed as first order rate constant of inactivation incubated for 12 hrs by fluorescence based analysis
[12] = molecular target: T2, Sortase A (Staphylococcus aureus); test: Binding affinity to Staphylococcus aureus SrtA (60 to 206 residues) using Dabcyl-Gln-Ala-Leu-Pro-Glu-Thr-Gly-Glu-Glu-Edans as substrate assessed as second order rate constant of inhibition, kinact/ki incubated for 12 hrs by fluorescence based analysis
[13] = molecular target: T1, Sortase A; test: Binding affinity to Staphylococcus aureus SrtA (60 to 206 residues) using Dabcyl-Gln-Ala-Leu-Pro-Glu-Thr-Gly-Glu-Glu-Edans as substrate incubated for 12 hrs by fluorescence based analysis
[14] = system: Staphylococcus aureus; test: Antibacterial activity against Staphylococcus aureus ATCC 6538p assessed as inhibition of bacterial growth incubated overnight by spectrophotometer; format: functional
[15] = molecular target: T1, Sortase A; test: Inhibition of recombinant Staphylococcus aureus SrtA deltaN59 using Dabcyl-[…]-Edans as substrate preincubated for 20 mins followed by substrate addition and measured after 1 hr by fluorescence based analysis
[16] = system: Staphylococcus aureus; test: Antibacterial activity against Staphylococcus aureus SA113 by microbroth dilution assay; format: functional
[17] = molecular target: T2, Sortase A (Staphylococcus aureus); test: Inhibition of Staphylococcus aureus SrtA expressed in Escherichia coli BL21 (DE3) cells using Abz-LPETG-Dap(Dnp) as substrate assessed as kinact/ki
[18] = molecular target: T1, Sortase A; test: Inhibition of Staphylococcus aureus SrtA with 24 residues truncated from N-terminus using Abz-LPATG-Dap as substrate
[19] = molecular target: T1, Sortase A; test: Inhibition of Staphylococcus aureus SrtA expressed in Escherichia coli by fluorescence based analysis
[20] = molecular target: T1, Sortase A; test: Inhibition of Staphylococcus aureus ATCC 6538p SrtA using dabcyl-LPETG-edans as substrate incubated for 1 hr by fluorometric analysis

Structure (SMILES): Clc1ccc(C2Nc3cccc4cccc(c34)N2)cc1
IC50 [1]: 89 µM

Structure (SMILES): O=C(NCCSSCCNC(=O)/C(Cc1ccc(O)c(Br)c1)=N/O)/C(Cc1ccc(O)c(Br)c1)=N/O [PSAMMAPLIN A]
MIC [2]: > 200 µg/mL
IC50 [3]: 47.4 µM

Structure (SMILES): COc1cc(/C=C/C(=O)O)ccc1O [FERULATE]
MIC [4]: > 5750 µM
IC50 [5]: 1320 µM

Structure (SMILES): CCOC(=O)/C(=N\Nc1ccc(Cl)c(Cl)c1)C(=O)c1cc(C)nn1CC
IC50 [6]: 1.7 µM
IC50 [7]: > 200 µM

Structure (SMILES): O=c1c(O)c(-c2ccc(O)c(O)c2)oc2cc(O)cc(O)c12 [QUERCETIN]
IC50 [8]: 52.7 µM

Structure (SMILES): O=c1c(OCCCO)c(SSc2cnn(-c3cccc(F)c3)c(=O)c2OCCCO)cnn1-c1cccc(F)c1
Ratio [9]: 1.8 10^4/M/min
IC50 [10]: 0.02 µM

Ratio [9]: 1.8 10^3/M/min
MIC [4]: > 1440 µM
Structure (SMILES): COc1ccc(C(Nc2ccccn2)c2oc(CO)cc(=O)c2O)cc1 (centres undefined)

Structure (SMILES): CCOc1c(SSc2cnn(-c3cccc(F)c3)c(=O)c2OCC)cnn(-c2cccc(F)c2)c1=O
IC50 [10]: 0.16 µM

Ratio [9]: 8.21 10^4/M/min
Structure (SMILES): CCSSc1ccccc1C(=O)N[C@H](CC(=O)O)C(=O)Nc1cccc(Oc2ccccc2)c1

Kinact [11]: 4 10^-4/min
Kinact [12]: 0.74 M⁻¹ s⁻¹
Ratio [12]: 44.4 M⁻¹ min⁻¹
Ki [13]: 9 µM
Structure (SMILES): CC(C)C[C@H](NC(=O)OCc1ccccc1)C(=O)N1CCC[C@H]1C(=O)N[C@@H](C)C(=O)N[C@@H](/C=C/S(=O)(=O)c1ccccc1)[C@@H](C)O

Ratio [9]: 6.39 10^4/M/min
Structure (SMILES): CCSSc1ccccc1C(=O)NCC(=O)N(C1CCCCC1)C1CCCCC1

Structure (SMILES): COc1ccc(-c2coc3cc(O)ccc3c2=O)cc1 [FORMONONETIN]
MIC [14]: > 478 µM
IC50 [8]: 74.9 µM

Structure (SMILES): O=C(O)COc1ccccc1C1Nc2cccc3cccc(c23)N1
IC50 [1]: 47.2 µM

Structure (SMILES): CC(C)C[C@H](N)C(=O)N1CCC[C@H]1C(=O)N[C@@H](CCCNC(=N)N)C(=O)N[C@@H](CC(=O)O)C(=O)N[C@@H](C)C(=O)O (H-LPRDA-OH)
IC50 [15]: 10.6 µM

Ratio [9]: 5.75 10^4/M/min
MIC [16]: 116 µM (≈ 50 µg/mL)
Structure (SMILES): CSSc1ccccc1C(=O)N1CCC[C@H]1C(=O)NC12CC3CC(CC(C3)C1)C2

Structure (SMILES): O=c1c(OCCO)c(SSc2cnn(-c3ccccc3)c(=O)c2OCCO)cnn1-c1ccccc1
IC50 [10]: 0.22 µM

Structure (SMILES): Cc1cc(C(=O)/C(=N/Nc2ccc(Cl)c(Cl)c2)C(=O)O)no1
IC50 [6]: 0.8 µM
IC50 [7]: > 200 µM

Ratio [17]: 20.1 M⁻¹ min⁻¹
Structure (SMILES): C=CS(=O)(=O)c1ccccc1

Structure (SMILES): COc1cc(/C=C/C(=O)CC(=O)/C=C/c2ccc(O)cc2)ccc1O
IC50 [3]: 70.3 µM
MIC [4]: > 543 µM

Structure (SMILES): Clc1ccccc1-c1nn2c(-c3ccncc3)nnc2s1
IC50 [18]: 37.7 µM

Ratio [9]: 1.4 10^3/M/min
MIC [4]: > 1580 µM
Structure (SMILES): O=c1cc(CO)oc(C(Nc2ccccn2)c2ccc(F)cc2)c1O (centres undefined)

Structure (SMILES): O=C(/C=C/c1ccc(O)cc1)CC(=O)/C=C/c1ccc(O)cc1 [BISDEMETHOXYCURCUMIN]
IC50 [3]: 103 µM
MIC [4]: > 543 µM

Structure (SMILES): O=S(=O)(O)c1cccc(-c2nn3c(-c4ccncc4)nnc3s2)c1
IC50 [18]: 9.3 µM

Ratio [9]: 2.4 10^3/M/min
MIC [4]: > 1580 µM
Structure (SMILES): O=c1cc(CO)oc(C(Nc2ccccn2)c2cccc(F)c2)c1O (centres undefined)

IC50 [19]: 198 µM
Structure (SMILES): Cc1cc2nc3[nH]c(=O)[nH]c(=O)c3nc2cc1C [LUMICHROME]

IC50 [20]: 146 µM
Structure (SMILES): C[C@H]1CC[C@H]2[C@@H](C=C[C@@](C)(O)[C@]2(C)C(=O)CCO)C1

Ratio [9]: 7.24 10^4/M/min
Structure (SMILES): CCSSc1ccccc1C(=O)NCC(=O)Nc1cccc(Oc2ccccc2)c1

MIC [4]: > 543 µM
Structure (SMILES): COc1cc(/C=C/C(=O)CC(=O)/C=C/c2ccc(O)c(OC)c2)ccc1O [CURCUMIN]

Structure (SMILES): c1cc(-c2nnc3sc(-c4ccc5[nH]cnc5c4)nn23)ccn1
IC50 [18]: 17 µM

Source: ChEMBL document CHEMBL5226340, “Chemical Biology of Sortase A Inhibition: A Gateway to Anti-infective Therapeutic Agents” (J Med Chem, 2021)
